The text below walks through data of PubChem BioAssay (NCI).

Among the test systems are LOX IMVI melanoma; M14 melanoma; A549 NSCLC; RPMI-8226 leukemia; A498 renal; RXF 393 renal; SK-MEL-2 melanoma; HT29 colon; SF-539 CNS; SW-620 colon; TK-10 renal; HCT-116 colon; UACC-257 melanoma.
What all share (assay): inhibition of tumour cell growth, NCI panel, 48 h

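Results reflect a 48-hour exposure of cells in 96-well plates to compound at five concentrations. TGI denotes the concentration required for complete inhibition of growth.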

Turning to `CC(=O)OC1CC2C(=O)CC1(C)C2(C)C` (stereo not drawn), the TGI in the assay on LOX IMVI melanoma, with M14 melanoma, in the assay on A549 NSCLC, in the assay on RPMI-8226 leukemia, in the assay with A498 renal and in the assay on RXF 393 renal was > 100 µM in each case. The TGI in the assay on SK-MEL-2 melanoma, in the assay with HT29 colon, with SF-539 CNS, in the assay on SW-620 colon, in the assay with TK-10 renal and in the assay with HCT-116 colon was > 100 µM throughout. In addition, in the assay on UACC-257 melanoma, the TGI is > 100 µM.
`CC(C)NC(=O)OCc1c(COC(=O)NC(C)C)c(-c2cc[n+](COC(=O)Cc3ccccc3)cc2)n2c1CCC2`: the TGI in the assay on LOX IMVI melanoma, in the assay on M14 melanoma, in the assay with A549 NSCLC, in the assay on RPMI-8226 leukemia, with A498 renal and with RXF 393 renal was > 100 µM each time. In addition, the TGI with SK-MEL-2 melanoma, with HT29 colon, with SF-539 CNS, with SW-620 colon, in the assay with TK-10 renal and with HCT-116 colon was > 100 µM throughout. Moreover, the TGI with UACC-257 melanoma was > 100 µM.
`Cc1ccc(C(CCO)CCO)nc1`: the TGI in the assay on LOX IMVI melanoma, in the assay on M14 melanoma, in the assay with A549 NSCLC, in the assay with RPMI-8226 leukemia, in the assay on A498 renal and in the assay on RXF 393 renal was > 100 µM throughout. For the same compound, the TGI with SK-MEL-2 melanoma, in the assay on HT29 colon, with SF-539 CNS, with SW-620 colon, with TK-10 renal and in the assay on HCT-116 colon was > 100 µM in each case. For the same compound, the TGI in the assay on UACC-257 melanoma is > 100 µM.
As to `CC(C)(C)C1CCC2c3c([nH]c4ccccc34)C3C(=O)N(c4cc(Cl)ccc4Cl)C(=O)C3C2C1` (stereo not drawn), the TGI with LOX IMVI melanoma, in the assay on M14 melanoma, with A549 NSCLC, in the assay with RPMI-8226 leukemia, in the assay with A498 renal and in the assay with RXF 393 renal was > 100 µM throughout. The TGI in the assay on SK-MEL-2 melanoma, in the assay with HT29 colon, in the assay on SF-539 CNS, with SW-620 colon, in the assay on TK-10 renal and in the assay on HCT-116 colon was > 100 µM each time. In addition, the TGI in the assay with UACC-257 melanoma was > 100 µM.
As to `O=C(NCCCN1CCN(CCCNC(=O)c2cc(-c3ccccc3)nc3ccccc23)CC1)c1cc(-c2ccccc2)nc2ccccc12`, the TGI with LOX IMVI melanoma is 10.6 µM; in the assay on M14 melanoma, 5.63 µM; in the assay with A549 NSCLC, 48.7 µM; in the assay with RPMI-8226 leukemia, > 57.8 µM; in the assay on A498 renal, 73.6 µM; in the assay with RXF 393 renal, > 60 µM. Moreover, the TGI was 36.9 µM with SK-MEL-2 melanoma; > 39.7 µM in the assay with HT29 colon; 41.5 µM with SF-539 CNS; > 29.5 µM in the assay on SW-620 colon; 60.2 µM in the assay with TK-10 renal; > 100 µM with HCT-116 colon. In the assay on UACC-257 melanoma, this compound displayed a TGI of 5.45 µM.
`Cc1c2c(n3c(nc4ccccc43)c1C#N)NCC2`: the TGI in the assay with LOX IMVI melanoma, with M14 melanoma, with A549 NSCLC, in the assay on RPMI-8226 leukemia, in the assay on A498 renal and in the assay on RXF 393 renal was > 10 µM each time. The TGI in the assay on HT29 colon, in the assay on SF-539 CNS, in the assay on SW-620 colon, in the assay with TK-10 renal, in the assay on HCT-116 colon and in the assay with UACC-257 melanoma was > 10 µM throughout.
Regarding `CCOC(=O)CN1C(=O)c2c(NC(=O)C(=O)O)cccc2S1(=O)=O`, the TGI in the assay on LOX IMVI melanoma, with M14 melanoma, with A549 NSCLC, with RPMI-8226 leukemia, with A498 renal and in the assay with RXF 393 renal was > 100 µM each time. In addition, the TGI with SK-MEL-2 melanoma, in the assay on HT29 colon, in the assay with SW-620 colon, with TK-10 renal, in the assay on HCT-116 colon and in the assay on UACC-257 melanoma was > 100 µM each time.
`Cc1nnc(N)nc1C/C=C/C(C)Sc1ccc(Cl)cc1` (stereo not drawn): the TGI with LOX IMVI melanoma was > 30.4 µM; with M14 melanoma, 26 µM; with A549 NSCLC, 58.6 µM; in the assay on RPMI-8226 leukemia it was > 70 µM; in the assay with A498 renal it was 25.9 µM; in the assay with RXF 393 renal, 22.2 µM. For the same compound, the TGI with SK-MEL-2 melanoma was 30.6 µM; in the assay on HT29 colon, 43.8 µM; in the assay with SW-620 colon, > 48 µM; with TK-10 renal, 35.9 µM; with HCT-116 colon, 33.8 µM; in the assay on UACC-257 melanoma, 30.8 µM.
As to `O=c1[nH]nc(-c2ccccc2)n1-n1cccc1`, the TGI in the assay with LOX IMVI melanoma, with M14 melanoma, with A549 NSCLC, in the assay with RPMI-8226 leukemia, with A498 renal and in the assay with RXF 393 renal was > 100 µM each time. The TGI with SK-MEL-2 melanoma, in the assay with HT29 colon, with SW-620 colon, with TK-10 renal, in the assay with HCT-116 colon and in the assay on UACC-257 melanoma was > 100 µM each time.
For the compound `Cc1cc2nc3c(C#N)c4c(c(Cl)n3c2cc1C)CCC4`, the TGI is 32 µM with LOX IMVI melanoma; 51 µM in the assay on RPMI-8226 leukemia; > 100 µM with A498 renal; 32.1 µM in the assay with RXF 393 renal; 49.5 µM in the assay with SF-539 CNS; 39.3 µM in the assay with SW-620 colon. Also, the TGI in the assay with TK-10 renal is 70.6 µM; in the assay on HCT-116 colon, 29.6 µM; in the assay with UACC-257 melanoma, > 100 µM.
Turning to `CC(C)(CN1CCCCC1)C(=O)CC(SCCS(=O)(=O)O)c1ccccc1` (stereo not drawn), the TGI in the assay on M14 melanoma was 26 µM; in the assay with A549 NSCLC, > 100 µM; in the assay with RPMI-8226 leukemia, 46.9 µM; in the assay on A498 renal, 32.1 µM; in the assay on RXF 393 renal, 35 µM; in the assay on SK-MEL-2 melanoma it was 96.5 µM. Further, the TGI turned out to be 31.7 µM in the assay with HT29 colon; 60.3 µM in the assay with SF-539 CNS; 28.8 µM in the assay with SW-620 colon; 38.1 µM with TK-10 renal; 18.2 µM in the assay on HCT-116 colon.
